Values joined by “and” are separate entries in the source; they are usually repeats but may differ in a detail not shown here. Identical values can stand only once. Positions of bridges follow the written chain, without caps; N, C: chain ends. Residues, ends and D or L forms follow the SMILES beside them.
Columns and labels:
[1] = target: T1, IGFBP-1 (Homo sapiens, UniProt P08833); experiment: Biotin-BP plate (ELISA) assay, biotinylated IGFBP-1 binding to IGF-I; details: for IC50: 20 nM biotinylated IGFBP-1, IGF-I coated plate, read-out: ELISA IC50, inhibition of IGF-I binding to IGFBP-1
T1 construct: biotin (chemical label, EZ-LINK NHS-SS-Biotin)
T1 sequence (P08833 26-259): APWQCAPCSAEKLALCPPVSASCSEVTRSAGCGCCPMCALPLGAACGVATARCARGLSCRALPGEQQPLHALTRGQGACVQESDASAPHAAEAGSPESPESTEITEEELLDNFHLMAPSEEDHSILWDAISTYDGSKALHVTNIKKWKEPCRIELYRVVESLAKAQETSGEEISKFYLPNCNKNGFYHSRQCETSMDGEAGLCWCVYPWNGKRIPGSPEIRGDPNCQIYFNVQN
Protocol: 1. Biotin-BP Assay (for IGFBP-1 Binders)
(§1) For inhibition of IGFBP-1 binding, IGFBP-1 (as well as IGFBP-3 as a control) were biotinylated as described above. MAXISORP™plates were coated and blocked as described above, using 2 μg/mL IGF-I. In a separate plate, serial dilutions of peptide were premixed with a constant concentration (20 nM) of biotinylated IGFBP-1. After 20 min. at room temperature, the mixture was added to the IGF-I plate. The peptide/IGFBP mix was then removed and the plate was washed ten times with PBS buffer containing 0.05% TWEEN-20™ surfactant. Bound biotin-IGFBP-1 was then detected using streptavidin-conjugated horse radish peroxidase, and a chromogenic substrate.
A second series of peptides made use of non-natural amino acids to probe whether other structural features such as an added methyl group at the alpha carbon, or an isomer (D-alanine) could affect peptide binding to IGFBP-1.
(§2) Substitutions at the N-terminus or C-terminus yielded affinity improvements. […] All of these peptides had similar or improved apparent affinity for IGFBP-1 as compared with bp1-01 and bp1-02 and are thus expected to increase the availability of IGF-I in an in vitro cell culture assay.

[2] = target: T2, IGFBP-3 (Homo sapiens, UniProt P17936); experiment: KIRA assay of IGF-I activity with IGF-I plus IGFBP-3 and peptide; assay type: cell-based; details: FIG. 37D
Protocol: (§3) C. In Vitro Activation (KIRA)
(§4) The ability of several synthetic peptides to block IGF-I binding to IGFBPs and release functional IGF-I was tested in a KIRA assay of IGF-I activity, as described in Example 1. Cells were treated with IGF-I alone, peptide alone, peptide plus IGF-I, IGF-I plus binding protein (IGFBP-1 or IGFBP-3), or IGF-I plus binding protein (IGFBP-1 or IGFBP-3) and peptide.
It is believed that this would drop to 30 uM with a 1:1 ratio.

[3] = target: T1, IGFBP-1; experiment: KIRA assay of IGF-I activity with IGF-I plus IGFBP-1 and peptide; assay type: cell-based; details: peptide plus IGF-I plus IGFBP-1; read-out: IC50 for blocking the inhibition of IGF-I activity by IGFBP-1 (KIRA)
Protocol: as §3, §4

[4] = target: T2, IGFBP-3; experiment: Biotin-BP plate assay, biotinylated IGFBP-3 binding to IGF-I (control); details: FIG. 34
Protocol: as §1

[5] = target: T1, IGFBP-1; experiment: BIAcore competition assay, IGFBP-1 binding to IGF-II; details: bp1-01 Ala-scan variants by BIAcore
Protocol: (§5) Two series of synthetic peptide variants were generated to determine which side chains of the bp1-01 peptide might contribute directly to binding IGFBP-1. In the first series an alanine-scanning approach (Cunningham and Wells, Science, 244: 1081-1085 (1989)) was used to remove that portion of each side chain beyond the beta carbon. The contribution of these atoms to the free energy of binding of the peptide to IGFBP-1 was then assessed by measuring the potency (IC50) of the variant for inhibiting IGFBP-1 binding to IGF-I or IGF-II in a BIAcore™competition assay, analogous to that described for IGFBP-3 (see Example 7).

[6] = target: T1, IGFBP-1; experiment: BIAcore kinetics on immobilized IGFBP-1; assay type: binding; details: IGFBP-1 coupled to dextran chip
Source text: The kinetics of bp1-01 peptide variants were examined in a BIAcore™ (BIAcore, Inc., Piscataway, N.J.) assay using IGFBP-1 covalently coupled via EDC/NHS (as described by the manufacturer) to a dextran chip. […] The latter implies a half-life for peptide dissociation from IGFBP-1 of approximately 28 sec. The association rate constant is moderately fast, consistent with the notion that the peptide may not undergo significant conformation change upon binding to IGFBP-1.

[7] = target: T1, IGFBP-1; experiment: BIAcore competition assay, IGFBP-1 binding to IGF-I; details: bp1-01 Ala-scan variants by BIAcore; wt = bp1-01
Protocol: as §5, §2

[8] = target: T1, IGFBP-1; experiment: IGF-blocking phage assay on IGFBP-1 coated plate; assay type: binding; details: FIG. 28
Protocol: To distinguish among these possibilities, phage clones were tested for the ability to bind to IGFBP-1 or IGFBP-3 in the presence and absence of IGF-I.
IGFBP-1 or IGFBP-3 was coated directly onto MAXISORP™ plates as above. Phage from clonal cultures were mixed with IGF-I (100 nM final concentration), and incubated with the immobilized IGFBP for 1 hour at room temperature. The plates were then washed ten times, as above, and a solution of rabbit anti-phage antibody mixed with a goat-anti-rabbit conjugate of horse radish peroxidase was added. After an incubation of 1 hour at room temperature, the plates were developed with a chromogenic substrate, o-phenylenediamine (Sigma). The reaction was stopped with addition of ½ volume of 2.5 M H2SO4. Optical density at 490 nm was measured on a spectrophotometric plate reader.
These peptides are thus likely to occupy an overlapping site with the IGF-binding epitope on IGFBP-3. […] Additional peptide-phage clones were screened similarly, at a low concentration of phage, with and without IGF-I.

[9] = g8 bp1-01 selectants by ELISA plate assay, wt = bp1-01

T2 sequence (P17936 28-291): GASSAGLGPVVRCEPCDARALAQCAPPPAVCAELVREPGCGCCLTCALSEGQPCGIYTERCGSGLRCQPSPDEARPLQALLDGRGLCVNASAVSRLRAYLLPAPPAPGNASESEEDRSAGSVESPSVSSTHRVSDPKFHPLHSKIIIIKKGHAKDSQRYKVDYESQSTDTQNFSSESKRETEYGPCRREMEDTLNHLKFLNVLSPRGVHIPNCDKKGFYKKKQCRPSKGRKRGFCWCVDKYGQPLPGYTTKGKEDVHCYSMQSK

Molecule	IC50 [1]	IGF-I Inhibition IC50 (mut)/IC50 (wt) ([1]; C-terminal bp1-01 variants by ELISA)	IGF-I Inhibition IC50 (mut)/IC50 (wt) ([1]; bp1-01 non-natural variants by ELISA, a = D-alanine, aib = alpha-aminoisobutyrate)	IGF-I Inhibition IC50 (mut)/IC50 (wt) [1, 9]	effect on IGF-I activity in KIRA with IGF-I plus IGFBP-3 [2]	IC50 [3]	inhibition of biotinylated IGFBP-3 binding to IGF-I plate [4]	IGF-II Inhibition IC50 (mut)/IC50 (wt) [5]	dissociation rate constant / dissociation kinetics [6]	IGF-I Inhibition IC50 (mut)/IC50 (wt) [7]	kon ([6]; read-out: association rate constant)	koff ([6]; read-out: dissociation rate constant / dissociation kinetics)	inhibition of phage binding to IGFBP-1 by IGF-I in phage titration [8]
CC(C)C[C@@H]1NC(=O)[C@H](Cc2c[nH]c3ccccc23)NC(=O)[C@H](CCC(N)=O)NC(=O)[C@H](CC(C)C)NC(=O)[C@@H]2CCCN2C(=O)CNC(=O)[C@H](C)NC(=O)[C@H](CCCNC(=N)N)NC(=O)[C@@H](N)CSSC[C@@H](C(=O)N[C@@H](CCC(=O)O)C(=O)N[C@@H](CCCCN)C(=O)N[C@@H](Cc2ccc(O)cc2)C(=O)N[C@@H](Cc2ccccc2)C(=O)NCC(N)=O)NC1=O [bp1-01] (H-CRAGPLQWLCEKYFG-NH2; disulfide 1-10; N-terminus assumed)	~180 nM and 180 nM	1	1	1	Neither of these peptides showed activity	397 nM	no inhibition	1	too rapid to measure	1			
CC(C)C[C@@H]1NC(=O)[C@H](Cc2c[nH]c3ccccc23)NC(=O)[C@H](CCC(N)=O)NC(=O)[C@H](CC(C)C)NC(=O)[C@@H]2CCCN2C(=O)CNC(=O)[C@H](C)NC(=O)[C@H](CCCNC(=N)N)NC(=O)[C@@H](NC(=O)CNC(=O)[C@@H](NC(=O)[C@H](CCC(=O)O)NC(=O)[C@@H](N)CO)C(C)C)CSSC[C@@H](C(=O)N[C@@H](CCC(=O)O)C(=O)N[C@@H](CCCCN)C(=O)N[C@@H](Cc2ccc(O)cc2)C(=O)N[C@@H](Cc2ccccc2)C(=O)NCC(N)=O)NC1=O [bp1-02] (H-SEVGCRAGPLQWLCEKYFG-NH2; disulfide 5-14; N-terminus assumed)	~50 nM and 50 nM			0.37	Neither of these peptides showed activity	187 nM	no inhibition				230000 M⁻¹ s⁻¹	0.0503 s⁻¹	
SEVGCRAGPLQWLCEKYF [HL-1]													inhibited by IGF-I for binding to IGFBP-1 at some phage concentration
